One series concerns HT-29. Put plainly: Antiproliferative activity against human HT-29 cells assessed as cell growth inhibition. The format is functional, cell-based.
Another series has as its system COLO-320-HSR. In words: Antiproliferative activity against human COLO 320HSR cells assessed as cell growth inhibition. In kind it is functional, cell-based.
Another series deals with DLD-1. Put plainly: Antiproliferative activity against human DLD-1 cells assessed as cell growth inhibition. The format is functional, cell-based.
Series [1] is described as follows: Bioavailability in human. In kind it is ADME, organism-based. The settings on record: in vivo.
A short description of a further series: in vivo. The following applies: mouse.
The test system of the next series is Human alphaherpesvirus 3. Put plainly: Antiviral activity against clinical isolate VZV. The format is functional, organism-based.

For 4 compounds, IC50, bioavailability and half-life results are on record in ChEMBL document CHEMBL5230118, “Therapeutic potential of uracil and its derivatives in countering pathogenic and physiological disorders” (Eur J Med Chem, 2020).

`O=c1[nH]c(=O)n([C@@H]2O[C@H](CO)[C@@H](O)[C@@H]2O)cc1F`: the IC50 in the series on HT-29 was found to be 41 nM; in the series with COLO-320-HSR, 23 nM; in the series with DLD-1, 52 nM.

`Cn1c(=O)cc(N2CCC[C@@H](N)C2)n(Cc2ccccc2C#N)c1=O` [ALOGLIPTIN] registered a bioavailability in series [1] of 75%.

As to `O=c1[nH]cc(F)c(=O)[nH]1` [FLUOROURACIL], the half-life in the series “in vivo” amounted to 16 min.

Regarding `CC#Cc1cn([C@@H]2O[C@H](CO)[C@@H](O)[C@@H]2O)c(=O)[nH]c1=O` [NETIVUDINE], the bioavailability in series [1] came to 25%. In addition, half-maximal inhibition in the series with Human alphaherpesvirus 3 (IC50) was put at 1000 nM.
